According to ChEMBL document CHEMBL5291721, “A preclinical secondary pharmacology resource illuminates target-adverse drug reaction associations of marketed drugs” (Nat Commun, 2023):

Columns and labels:
[1] = molecular target: T1, Neuropeptide Y receptor type 2 (Homo sapiens, UniProt P49146)
T1 sequence (P49146 whole entry): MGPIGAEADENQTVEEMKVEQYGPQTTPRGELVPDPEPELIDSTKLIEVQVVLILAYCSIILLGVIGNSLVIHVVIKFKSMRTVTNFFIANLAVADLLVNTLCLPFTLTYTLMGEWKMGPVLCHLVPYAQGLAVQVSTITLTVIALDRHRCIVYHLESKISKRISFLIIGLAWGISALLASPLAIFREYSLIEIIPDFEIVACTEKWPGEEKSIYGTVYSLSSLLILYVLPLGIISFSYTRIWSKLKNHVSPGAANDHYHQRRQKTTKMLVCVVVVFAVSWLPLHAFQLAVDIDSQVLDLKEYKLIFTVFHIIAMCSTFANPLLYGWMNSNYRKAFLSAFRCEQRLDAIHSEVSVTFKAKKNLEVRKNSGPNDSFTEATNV

[2] = molecular target: T2, Alpha-2A adrenergic receptor (Homo sapiens, UniProt P08913)
T2 sequence (P08913 whole entry): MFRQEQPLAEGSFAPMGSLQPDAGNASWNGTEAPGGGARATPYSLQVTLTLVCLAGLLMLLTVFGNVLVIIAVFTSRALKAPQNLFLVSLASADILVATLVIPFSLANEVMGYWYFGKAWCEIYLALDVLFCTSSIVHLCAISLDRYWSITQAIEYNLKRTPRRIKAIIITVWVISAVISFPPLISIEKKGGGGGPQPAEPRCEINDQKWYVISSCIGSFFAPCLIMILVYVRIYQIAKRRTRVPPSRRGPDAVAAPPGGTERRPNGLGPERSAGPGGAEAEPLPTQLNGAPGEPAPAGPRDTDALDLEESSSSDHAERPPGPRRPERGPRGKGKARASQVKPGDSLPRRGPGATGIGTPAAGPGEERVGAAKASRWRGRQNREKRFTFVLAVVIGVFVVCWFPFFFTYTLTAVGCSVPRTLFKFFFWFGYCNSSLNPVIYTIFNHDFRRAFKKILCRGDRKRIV

Estrogen receptor = molecular target: T3, Estrogen receptor (Homo sapiens, UniProt P03372)
T3 sequence (P03372 whole entry): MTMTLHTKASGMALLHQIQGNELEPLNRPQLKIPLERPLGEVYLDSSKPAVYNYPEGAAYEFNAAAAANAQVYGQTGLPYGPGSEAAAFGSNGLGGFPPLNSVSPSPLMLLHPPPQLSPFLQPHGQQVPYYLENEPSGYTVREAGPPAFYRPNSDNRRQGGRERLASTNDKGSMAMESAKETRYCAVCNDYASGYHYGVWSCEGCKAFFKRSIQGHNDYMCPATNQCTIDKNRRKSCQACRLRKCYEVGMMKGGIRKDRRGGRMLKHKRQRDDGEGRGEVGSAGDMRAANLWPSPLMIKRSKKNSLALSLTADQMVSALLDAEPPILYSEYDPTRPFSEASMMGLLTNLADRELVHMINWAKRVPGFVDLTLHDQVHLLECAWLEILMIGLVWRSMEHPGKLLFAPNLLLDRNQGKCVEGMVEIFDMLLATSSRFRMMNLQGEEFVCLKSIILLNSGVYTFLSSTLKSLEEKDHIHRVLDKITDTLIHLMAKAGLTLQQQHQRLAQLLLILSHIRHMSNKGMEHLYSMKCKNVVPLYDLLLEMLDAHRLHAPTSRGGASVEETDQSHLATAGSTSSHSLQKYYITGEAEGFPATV

[3] = molecular target: 5-hydroxytryptamine receptor 2B (Homo sapiens, UniProt P41595)
D(4) dopamine receptor = molecular target: T4, D(4) dopamine receptor (Homo sapiens, UniProt P21917)
T4 sequence (P21917 whole entry): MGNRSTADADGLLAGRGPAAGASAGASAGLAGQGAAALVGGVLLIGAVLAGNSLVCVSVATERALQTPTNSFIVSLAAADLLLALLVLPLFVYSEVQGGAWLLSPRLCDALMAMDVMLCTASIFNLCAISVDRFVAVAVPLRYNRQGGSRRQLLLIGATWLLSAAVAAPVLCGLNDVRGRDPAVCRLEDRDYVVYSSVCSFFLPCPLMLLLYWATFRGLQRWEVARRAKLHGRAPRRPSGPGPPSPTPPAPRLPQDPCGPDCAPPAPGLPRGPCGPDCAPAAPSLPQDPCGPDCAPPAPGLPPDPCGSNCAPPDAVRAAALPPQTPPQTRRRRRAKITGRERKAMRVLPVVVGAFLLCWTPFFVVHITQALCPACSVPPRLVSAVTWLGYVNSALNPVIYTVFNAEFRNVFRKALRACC

[4] = molecular target: T5, Muscarinic acetylcholine receptor M2 (Homo sapiens, UniProt P08172)
T5 sequence (P08172 whole entry): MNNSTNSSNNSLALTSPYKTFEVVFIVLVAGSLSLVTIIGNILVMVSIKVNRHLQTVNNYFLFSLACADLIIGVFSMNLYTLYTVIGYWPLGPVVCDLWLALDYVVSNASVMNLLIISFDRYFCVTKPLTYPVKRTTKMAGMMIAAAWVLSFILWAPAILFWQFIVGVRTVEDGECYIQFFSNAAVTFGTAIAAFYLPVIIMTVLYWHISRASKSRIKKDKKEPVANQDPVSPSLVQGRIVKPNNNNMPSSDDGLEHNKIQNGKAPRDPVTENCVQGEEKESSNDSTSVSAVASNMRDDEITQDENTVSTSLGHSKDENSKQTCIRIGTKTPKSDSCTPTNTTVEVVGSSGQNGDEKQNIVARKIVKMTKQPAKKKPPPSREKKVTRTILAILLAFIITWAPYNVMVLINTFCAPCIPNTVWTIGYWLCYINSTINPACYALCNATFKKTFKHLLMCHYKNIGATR

B1 bradykinin receptor = molecular target: T6, B1 bradykinin receptor (Homo sapiens, UniProt P46663)
T6 sequence (P46663 whole entry): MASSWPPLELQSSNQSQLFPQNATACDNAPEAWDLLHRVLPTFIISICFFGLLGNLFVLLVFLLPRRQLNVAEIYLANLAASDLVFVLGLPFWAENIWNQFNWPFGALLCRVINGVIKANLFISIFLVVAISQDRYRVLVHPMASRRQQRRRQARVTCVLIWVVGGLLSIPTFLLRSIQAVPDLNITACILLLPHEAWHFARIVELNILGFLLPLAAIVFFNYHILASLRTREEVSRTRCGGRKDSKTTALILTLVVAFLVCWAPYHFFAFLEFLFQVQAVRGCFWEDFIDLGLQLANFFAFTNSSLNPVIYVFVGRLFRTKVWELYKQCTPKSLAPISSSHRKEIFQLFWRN

[5] = molecular target: Gamma-aminobutyric acid receptor subunit alpha-1 (Rattus norvegicus, UniProt P62813)
Note: assay procedure not described here.

Sequence of Gamma-aminobutyric acid receptor subunit alpha-1 (P62813 whole entry): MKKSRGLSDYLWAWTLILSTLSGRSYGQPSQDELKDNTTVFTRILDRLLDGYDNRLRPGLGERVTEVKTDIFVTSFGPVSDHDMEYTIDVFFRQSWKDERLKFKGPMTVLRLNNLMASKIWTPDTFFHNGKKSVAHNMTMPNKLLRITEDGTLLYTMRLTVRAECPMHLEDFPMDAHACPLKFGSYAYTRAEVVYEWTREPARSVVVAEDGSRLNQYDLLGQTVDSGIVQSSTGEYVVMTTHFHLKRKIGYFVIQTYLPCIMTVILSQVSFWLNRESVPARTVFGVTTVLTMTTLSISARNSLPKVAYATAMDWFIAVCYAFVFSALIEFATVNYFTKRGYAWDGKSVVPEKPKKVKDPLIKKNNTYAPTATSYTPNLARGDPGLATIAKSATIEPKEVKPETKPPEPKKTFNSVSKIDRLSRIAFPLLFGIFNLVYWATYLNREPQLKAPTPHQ
Sequence of 5-hydroxytryptamine receptor 2B (P41595 whole entry): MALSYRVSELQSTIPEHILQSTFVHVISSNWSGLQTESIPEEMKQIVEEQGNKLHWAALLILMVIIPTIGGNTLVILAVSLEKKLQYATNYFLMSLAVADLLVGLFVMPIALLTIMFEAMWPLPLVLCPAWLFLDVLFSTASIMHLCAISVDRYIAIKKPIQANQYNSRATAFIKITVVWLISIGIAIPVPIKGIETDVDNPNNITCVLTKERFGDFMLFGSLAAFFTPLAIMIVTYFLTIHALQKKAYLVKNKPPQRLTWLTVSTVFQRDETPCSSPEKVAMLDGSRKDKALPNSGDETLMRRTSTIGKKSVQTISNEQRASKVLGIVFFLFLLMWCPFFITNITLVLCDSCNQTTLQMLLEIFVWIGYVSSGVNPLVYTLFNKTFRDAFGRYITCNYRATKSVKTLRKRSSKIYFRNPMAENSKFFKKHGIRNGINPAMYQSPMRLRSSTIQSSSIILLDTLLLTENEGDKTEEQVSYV

Cn1nnc2c(C(N)=O)ncn2c1=O [TEMOZOLOMIDE]
AC50 [1]: > 30 µM
AC50 [2]: > 10 µM
AC50 (Estrogen receptor): > 30 µM
AC50 [3]: > 10 µM
AC50 (D(4) dopamine receptor): > 10 µM
AC50 [4]: > 10 µM
AC50 (B1 bradykinin receptor): > 30 µM

Cc1c(C(=O)NN2CCCCC2)nn(-c2ccc(Cl)cc2Cl)c1-c1ccc(Cl)cc1 [RIMONABANT]
AC50 [1]: > 30 µM
AC50 [2]: > 10 µM
AC50 (Estrogen receptor): > 30 µM
AC50 [3]: > 10 µM
AC50 (D(4) dopamine receptor): > 10 µM
AC50 (B1 bradykinin receptor): > 30 µM

O=C(O[C@H]1C[C@H]2CC[C@@H](C1)[N+]21CCCC1)C(O)(c1ccccc1)c1ccccc1 [TROSPIUM]
AC50 [4]: 0.026 µM

NCC(CC(=O)O)c1ccc(Cl)cc1 (stereo not given) [BACLOFEN]
AC50 [1]: > 30 µM
AC50 [2]: > 10 µM
AC50 [3]: > 10 µM
AC50 (D(4) dopamine receptor): > 10 µM
AC50 [4]: > 10 µM
AC50 (B1 bradykinin receptor): > 30 µM

Cc1cn([C@H]2C=C[C@@H](CO)O2)c(=O)[nH]c1=O [STAVUDINE]
AC50 [1]: > 30 µM
AC50 [2]: > 10 µM
AC50 [5]: > 30 µM
AC50 [3]: > 10 µM
AC50 (D(4) dopamine receptor): > 10 µM
AC50 [4]: > 10 µM
AC50 (B1 bradykinin receptor): > 30 µM

CC1=C(C(=O)O)N2C(=O)[C@@H](NC(=O)[C@H](N)c3ccccc3)[C@H]2SC1 [CEPHALEXIN ANHYDROUS]
AC50 [1]: > 30 µM
AC50 [2]: > 10 µM
AC50 (Estrogen receptor): > 30 µM
AC50 (D(4) dopamine receptor): > 10 µM
AC50 (B1 bradykinin receptor): > 30 µM

Clc1ccc2nsnc2c1NC1=NCCN1 [TIZANIDINE]
AC50 [1]: > 30 µM
AC50 (Estrogen receptor): > 30 µM
AC50 [3]: > 10 µM
AC50 [4]: > 10 µM
AC50 (B1 bradykinin receptor): > 30 µM

Cc1ccc(-c2cc(C(F)(F)F)nn2-c2ccc(S(N)(=O)=O)cc2)cc1 [CELECOXIB]
AC50 [1]: > 30 µM
AC50 [2]: > 10 µM
AC50 (Estrogen receptor): > 30 µM
AC50 [3]: > 10 µM
AC50 (D(4) dopamine receptor): > 10 µM
AC50 [4]: > 10 µM
AC50 (B1 bradykinin receptor): > 30 µM

CCCN1C[C@H](CSC)C[C@@H]2c3cccc4[nH]cc(c34)C[C@H]21 [PERGOLIDE]
AC50 [1]: > 30 µM
AC50 (Estrogen receptor): > 30 µM
AC50 [3]: 0.0205 µM
AC50 [4]: > 10 µM
AC50 (B1 bradykinin receptor): > 30 µM

CN(C)CCC(c1ccc(Cl)cc1)c1ccccn1 (stereo not given) [CHLORPHENIRAMINE]
AC50 [1]: > 30 µM
AC50 [2]: > 10 µM
AC50 [3]: 4.06 µM
AC50 (D(4) dopamine receptor): > 10 µM
AC50 [4]: 5.52 µM
AC50 (B1 bradykinin receptor): > 30 µM

CO[C@H]1C[C@@H]2CC[C@@H](C)[C@@](O)(O2)C(=O)C(=O)N2CCCC[C@H]2C(=O)O[C@H]([C@H](C)C[C@@H]2CC[C@@H](O)[C@H](OC)C2)CC(=O)[C@H](C)/C=C(\C)[C@@H](O)[C@@H](OC)C(=O)[C@H](C)C[C@H](C)/C=C/C=C/C=C/1C [SIROLIMUS]
AC50 [1]: > 30 µM
AC50 [5]: > 30 µM
AC50 (Estrogen receptor): > 30 µM
AC50 (B1 bradykinin receptor): > 30 µM

CCC(C)n1ncn(-c2ccc(N3CCN(c4ccc(OCC5COC(Cn6cncn6)(c6ccc(Cl)cc6Cl)O5)cc4)CC3)cc2)c1=O (stereo not given) [ITRACONAZOLE]
AC50 [1]: > 30 µM
AC50 [2]: > 10 µM
AC50 (Estrogen receptor): > 30 µM
AC50 [3]: > 10 µM
AC50 (D(4) dopamine receptor): > 10 µM
AC50 [4]: > 10 µM
AC50 (B1 bradykinin receptor): > 30 µM

CS(=O)(=O)c1ccc(C2=C(c3ccccc3)C(=O)OC2)cc1 [ROFECOXIB]
AC50 [1]: > 30 µM
AC50 [2]: > 10 µM
AC50 [3]: > 10 µM
AC50 (D(4) dopamine receptor): > 10 µM
AC50 [4]: > 10 µM
AC50 (B1 bradykinin receptor): > 30 µM

Cc1cn([C@H]2C[C@H](N=[N+]=[N-])[C@@H](CO)O2)c(=O)[nH]c1=O [ZIDOVUDINE]
AC50 [1]: > 30 µM
AC50 [2]: > 10 µM
AC50 [5]: > 30 µM
AC50 (Estrogen receptor): > 30 µM
AC50 (D(4) dopamine receptor): > 10 µM
AC50 [4]: > 10 µM
AC50 (B1 bradykinin receptor): > 30 µM

CC(C)C[C@H]1C(=O)N2CCC[C@H]2[C@]2(O)O[C@](NC(=O)[C@@H]3C=C4c5cccc6[nH]c(Br)c(c56)C[C@H]4N(C)C3)(C(C)C)C(=O)N12 [BROMOCRIPTINE]
AC50 [1]: > 30 µM
AC50 [5]: > 30 µM
AC50 [3]: 0.412 µM
AC50 [4]: > 10 µM
AC50 (B1 bradykinin receptor): > 30 µM

CC[C@H]1OC(=O)[C@H](C)[C@@H](O[C@H]2C[C@@](C)(OC)[C@@H](O)[C@H](C)O2)[C@H](C)[C@@H](O[C@@H]2O[C@H](C)C[C@H](N(C)C)[C@H]2O)[C@](C)(O)C[C@@H](C)CN(C)[C@H](C)[C@@H](O)[C@]1(C)O [AZITHROMYCIN]
AC50 [1]: > 30 µM
AC50 [2]: > 10 µM
AC50 [5]: > 30 µM
AC50 (Estrogen receptor): > 30 µM
AC50 [3]: > 10 µM
AC50 (D(4) dopamine receptor): > 10 µM
AC50 [4]: > 10 µM
AC50 (B1 bradykinin receptor): > 30 µM

CCOC(=O)[C@H](CCc1ccccc1)N[C@@H](C)C(=O)N1[C@H](C(=O)O)C[C@@H]2CCC[C@@H]21
AC50 [1]: > 30 µM
AC50 [2]: > 10 µM
AC50 (Estrogen receptor): > 30 µM
AC50 [3]: > 10 µM
AC50 (D(4) dopamine receptor): > 10 µM
AC50 [4]: > 10 µM
AC50 (B1 bradykinin receptor): > 30 µM

C[C@]12CCC(=O)C=C1CC[C@@H]1[C@@H]2[C@@H](O)C[C@@]2(C)[C@H]1CC[C@]2(O)C(=O)CO [HYDROCORTISONE]
AC50 [1]: > 30 µM
AC50 [2]: > 10 µM
AC50 [3]: > 10 µM
AC50 (D(4) dopamine receptor): > 10 µM
AC50 [4]: > 10 µM
AC50 (B1 bradykinin receptor): > 30 µM
